Reference: paper PMC6469291, “2-Nitroimidazole-Furanoside Derivatives for Hypoxia Imaging—Investigation of Nucleoside Transporter Interaction, ^18F-Labeling and Preclinical PET Imaging” (Pharmaceuticals, 2019)
Where two headings read alike, the source gives them in different places.

Columns and labels:
hCNT1 (SLC28A1) = target: T1, hCNT1 (SLC28A1) (Homo sapiens, UniProt O00337); assay: Inhibition of [^3H]uridine uptake in yeast cells producing recombinant hCNT1; type: cell-based
T1 construct: expressed in transfected cells; host or cells: Saccharomyces cerevisiae
T1 sequence (O00337 1-649): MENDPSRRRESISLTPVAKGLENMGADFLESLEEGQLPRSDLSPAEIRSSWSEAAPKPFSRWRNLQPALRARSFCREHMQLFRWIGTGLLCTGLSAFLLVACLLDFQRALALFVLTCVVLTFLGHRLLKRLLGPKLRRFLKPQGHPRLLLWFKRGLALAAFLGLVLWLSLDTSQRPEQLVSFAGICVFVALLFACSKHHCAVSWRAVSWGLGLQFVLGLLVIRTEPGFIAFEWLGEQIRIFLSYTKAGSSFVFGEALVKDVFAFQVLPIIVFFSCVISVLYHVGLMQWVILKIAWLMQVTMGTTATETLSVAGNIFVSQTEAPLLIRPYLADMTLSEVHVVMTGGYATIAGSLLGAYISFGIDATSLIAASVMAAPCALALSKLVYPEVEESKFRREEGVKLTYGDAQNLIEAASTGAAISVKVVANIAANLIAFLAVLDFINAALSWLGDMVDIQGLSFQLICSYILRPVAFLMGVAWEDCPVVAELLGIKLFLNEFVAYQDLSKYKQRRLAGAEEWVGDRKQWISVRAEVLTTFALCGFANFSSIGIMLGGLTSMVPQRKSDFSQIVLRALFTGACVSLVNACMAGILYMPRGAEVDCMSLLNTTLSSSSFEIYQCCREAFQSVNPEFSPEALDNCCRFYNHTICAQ
Procedure: (§1) The interaction of 2-nitroimidazole sugars with nucleoside transporters was determined by ability of the 2-nitroimidazole sugars to inhibit [^3H]uridine uptake in yeast cells producing recombinant human nucleoside transporters and results expressed as IC50 values.
(§2) Saccharomyces cerevisiae yeast was separately transformed with plasmids (pYPhENT1, pYPhENT2, pYPhCNT1, pYPhCNT2, or pYPhCNT3) encoding hNTs (hENT1, hENT2, hCNT1, hCNT2, or hCNT3, respectively) as described elsewhere. Uptake of 1 µmol/L [^3H]uridine (Moravek Biochemicals) into yeast was measured as previously described using a semi-automated cell harvester (Micro96 HARVESTER; Skatron Instruments, Tranby, Norway). Yeast was incubated at room temperature with 1 µmol/L [^3H]uridine in yeast growth media (pH 7.4) in the presence or absence (uninhibited controls) of graded concentrations (0–3 mM) of test compounds. The following compounds were used for transporter experiments: FAZA, β-FAZA, α-FAZDR, β-FAZDR. Uridine self-inhibition was used to determine maximum inhibition of mediated transport. Concentration–effect curves were subjected to nonlinear regression analysis using Prism software (version 4.03; GraphPad Software Inc.) to obtain the concentration of test compound that inhibited uridine uptake by 50%, relative to that of untreated cells (IC50 values). Each IC50 value determination was conducted with nine concentrations and four replicates per concentration and experiments were repeated two to three times.

hENT2 (SLC29A2) = target: T2, hENT2 (SLC29A2) (Homo sapiens, UniProt Q14542); assay: Inhibition of [^3H]uridine uptake in yeast cells producing recombinant hENT2; type: cell-based
T2 construct: expressed in transfected cells; host or cells: Saccharomyces cerevisiae
T2 sequence (Q14542 1-456): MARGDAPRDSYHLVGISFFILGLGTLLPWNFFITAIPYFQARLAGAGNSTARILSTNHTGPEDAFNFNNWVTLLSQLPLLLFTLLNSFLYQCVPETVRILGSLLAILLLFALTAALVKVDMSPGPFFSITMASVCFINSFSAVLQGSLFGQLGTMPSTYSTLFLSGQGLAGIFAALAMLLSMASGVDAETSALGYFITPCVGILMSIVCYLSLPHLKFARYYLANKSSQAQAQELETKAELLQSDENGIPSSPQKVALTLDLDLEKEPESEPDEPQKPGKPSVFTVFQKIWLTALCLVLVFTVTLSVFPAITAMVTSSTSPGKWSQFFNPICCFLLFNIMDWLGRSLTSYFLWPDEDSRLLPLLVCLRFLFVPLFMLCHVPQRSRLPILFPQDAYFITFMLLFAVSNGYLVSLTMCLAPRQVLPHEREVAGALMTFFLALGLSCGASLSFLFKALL
Procedure: as §1, §2

hCNT3 (SLC28A3) = target: T3, hCNT3 (SLC28A3) (Homo sapiens, UniProt Q9HAS3); assay: Inhibition of [^3H]uridine uptake in yeast cells producing recombinant hCNT3; type: cell-based
T3 construct: expressed in transfected cells; host or cells: Saccharomyces cerevisiae
T3 sequence (Q9HAS3 1-691): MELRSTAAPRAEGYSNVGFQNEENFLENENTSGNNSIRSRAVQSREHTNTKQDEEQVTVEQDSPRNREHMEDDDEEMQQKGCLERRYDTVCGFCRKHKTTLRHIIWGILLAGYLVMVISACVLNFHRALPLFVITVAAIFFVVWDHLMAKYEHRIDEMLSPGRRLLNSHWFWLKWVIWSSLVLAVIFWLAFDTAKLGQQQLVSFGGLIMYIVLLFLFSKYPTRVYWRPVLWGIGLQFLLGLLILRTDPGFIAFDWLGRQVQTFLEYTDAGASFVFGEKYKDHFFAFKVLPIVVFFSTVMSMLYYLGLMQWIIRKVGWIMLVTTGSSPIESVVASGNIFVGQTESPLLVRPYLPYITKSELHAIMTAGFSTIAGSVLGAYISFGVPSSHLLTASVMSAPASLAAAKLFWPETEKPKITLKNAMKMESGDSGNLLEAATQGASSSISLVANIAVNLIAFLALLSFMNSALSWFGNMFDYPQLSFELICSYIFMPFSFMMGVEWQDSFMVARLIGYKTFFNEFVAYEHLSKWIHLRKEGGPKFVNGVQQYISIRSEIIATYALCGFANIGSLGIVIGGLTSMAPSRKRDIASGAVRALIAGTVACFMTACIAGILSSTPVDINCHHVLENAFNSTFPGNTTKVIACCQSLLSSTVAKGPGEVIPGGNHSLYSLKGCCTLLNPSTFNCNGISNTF
Procedure: as §1, §2

hENT1 (SLC29A1) = target: T4, hENT1 (SLC29A1) (Homo sapiens, UniProt Q99808); assay: Inhibition of [^3H]uridine uptake in yeast cells producing recombinant hENT1; type: cell-based; settings: inhibition of 1 µmol/L [^3H]uridine transport, yeast, 0–3 mM test compound, mean ± SE, n = 2–3; NI = no interaction
T4 construct: expressed in transfected cells; host or cells: Saccharomyces cerevisiae
T4 sequence (Q99808 1-456): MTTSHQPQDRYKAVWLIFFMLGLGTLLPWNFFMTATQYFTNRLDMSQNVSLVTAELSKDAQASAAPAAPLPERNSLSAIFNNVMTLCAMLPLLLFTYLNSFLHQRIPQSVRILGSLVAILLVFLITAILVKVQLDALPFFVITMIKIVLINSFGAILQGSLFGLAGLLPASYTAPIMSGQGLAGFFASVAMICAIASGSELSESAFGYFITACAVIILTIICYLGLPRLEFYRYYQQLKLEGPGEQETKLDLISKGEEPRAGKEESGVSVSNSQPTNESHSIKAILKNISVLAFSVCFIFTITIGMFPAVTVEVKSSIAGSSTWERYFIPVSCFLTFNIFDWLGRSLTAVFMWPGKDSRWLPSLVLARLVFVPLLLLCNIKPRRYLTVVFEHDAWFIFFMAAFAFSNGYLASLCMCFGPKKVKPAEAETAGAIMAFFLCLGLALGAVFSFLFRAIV
Procedure: as §1, §2

hCNT2 (SLC28A2) = target: T5, hCNT2 (SLC28A2) (Homo sapiens, UniProt O43868); assay: Inhibition of [^3H]uridine uptake in yeast cells producing recombinant hCNT2; type: cell-based
T5 construct: expressed in transfected cells; host or cells: Saccharomyces cerevisiae
T5 sequence (O43868 1-658): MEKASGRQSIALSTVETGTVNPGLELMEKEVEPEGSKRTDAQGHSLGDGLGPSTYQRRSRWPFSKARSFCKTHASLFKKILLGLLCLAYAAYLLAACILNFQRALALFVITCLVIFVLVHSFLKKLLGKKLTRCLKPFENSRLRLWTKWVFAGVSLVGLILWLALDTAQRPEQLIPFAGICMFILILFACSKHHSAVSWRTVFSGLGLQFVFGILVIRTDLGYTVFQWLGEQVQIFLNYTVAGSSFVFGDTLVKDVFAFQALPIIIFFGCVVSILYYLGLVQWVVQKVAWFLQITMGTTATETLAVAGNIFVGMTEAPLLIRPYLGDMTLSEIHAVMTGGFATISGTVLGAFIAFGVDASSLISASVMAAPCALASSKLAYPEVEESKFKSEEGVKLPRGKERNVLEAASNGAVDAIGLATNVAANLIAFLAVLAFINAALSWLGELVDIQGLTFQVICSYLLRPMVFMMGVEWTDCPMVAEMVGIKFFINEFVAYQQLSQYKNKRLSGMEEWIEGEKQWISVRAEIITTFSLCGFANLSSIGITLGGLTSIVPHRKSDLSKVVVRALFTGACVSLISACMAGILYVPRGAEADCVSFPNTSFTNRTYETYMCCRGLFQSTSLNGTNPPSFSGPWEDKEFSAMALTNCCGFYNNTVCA
Procedure: as §1, §2

CT26 colon carcinoma = assay: PET hypoxia imaging of CT26 colon carcinoma bearing mice; type: in vivo, BALB/c mice; settings: for tumor uptake: hypoxic CT26 tumor tissue; for tumor uptake / muscle uptake: PET; for tumor-to-muscle ratio (TMR): i.v., CT26 tumor vs. shoulder muscle, mean ± SD; for muscle uptake: normoxic muscle tissue
Procedure: The above-described CT26 mouse colon carcinoma cells were subcutaneously inoculated in the right shoulder of female BALB/c mice (1 × 10^6 cells in phosphate-buffered saline, PBS). Subsequently, the carcinomas were allowed to grow for a period of 13 days, reaching approximately 0.3 cm3. […] All animal experiments were conducted according to guidelines for the use and care of laboratory research animals under the German Animal Protection Law, and approved by local authorities (Regierungspräsidium Tübingen). […] All experiments were done using medical air as carrier gas for isoflurane anesthesia (1.5% isoflurane during PET scans, flow rate 0.4 L/min), including tracer injections, with a specialized vaporizer ([…], Louisville, KY, USA). Subsequent to the tracer injections, the animals were allowed to freely move in their home cages for an uptake period of 55 min, thus, breathing room air. […] PET scans were performed with a Siemens Inveon dedicated PET (DPET, Siemens Healthcare, Knoxville, TN, USA). PET scans were then reconstructed with a two-dimensional ordered subset expectation maximization algorithm (OSEM2D with 16 subsets and 4 iterations). Image zoom was set to 1 and matrix size to 128 × 128 yielding a final PET image spatial resolution of 0.79 × 0.79 × 0.80 mm3. PET data were manually corrected for radioactive decay of ^18F. PET image analysis was performed using the PMOD 3.2_base 64 image viewing tool (PMOD Technologies, Zürich, Switzerland). […] Finally, PET data were expressed as percent injected dose per cubic-centimeter (%ID/cc) or tumor-to-muscle ratio (TMR).

[1] = inhibition of 1 µmol/L [^3H]uridine transport, yeast, 0–3 mM test compound, mean ± SE, n = 2–3, NI = no interaction

Compound	IC50 (hCNT1 (SLC28A1)) [µM]	IC50 (hCNT3 (SLC28A3)) [µM]	tumor uptake (CT26 colon carcinoma; 1 h p.i.) [%ID/cc]	tumor-to-muscle ratio (TMR) (CT26 colon carcinoma; 1 h p.i.)	muscle uptake (CT26 colon carcinoma; 1 h p.i.) [%ID/cc]	muscle clearance (CT26 colon carcinoma; 2 h p.i. relative to 1 h p.i.) [%]	tumor clearance (CT26 colon carcinoma; 2 h p.i. relative to 1 h p.i.) [%]	clearance ratio for tumor relative to muscle tissue (CT26 colon carcinoma; 3 h p.i.)	muscle clearance (CT26 colon carcinoma; 3 h p.i. relative to 1 h p.i.) [%]	tumor clearance (CT26 colon carcinoma; 3 h p.i. relative to 1 h p.i.) [%]	tumor uptake (CT26 colon carcinoma; 3 h p.i.) [%ID/cc]	muscle uptake (CT26 colon carcinoma; 3 h p.i.) [%ID/cc]	other results
O=[N+]([O-])c1nccn1[C@H]1O[C@H](CF)[C@@H](O)[C@@H]1O [FAZA, 1-(5′-deoxy-5′-fluoro-α-D-arabinofuranosyl)-2-nitroimidazole]	290 ± 44	1380 ± 100											IC50 (hENT2 (SLC29A2); [1]): > 3000 µM; IC50 hENT2 (SLC29A2) (hENT2 (SLC29A2); [1]): no interaction; IC50 (hENT1 (SLC29A1)): > 3000 µM; IC50 hENT1 (SLC29A1) (hENT1 (SLC29A1)): no interaction; IC50 (hCNT2 (SLC28A2)): 640 ± 10 µM
O=[N+]([O-])c1nccn1CC(O)C[18F] (stereo not drawn) [[^18F]FMISO, reference compound]			2.49 ± 0.88	1.37 ± 0.11	1.81 ± 0.58	37.2 ± 4.3	11.8 ± 6.5	0.45 ± 0.17	58.6 ± 3.3	26.9 ± 10.1			
O=[N+]([O-])c1nccn1[C@@H]1C[C@H](O)[C@@H](C[18F])O1 [α-[^18F]FAZDR, 1′-α-[2′,5′-dideoxy-5′-[^18F]fluoro-D-ribofuranosyl]-2-nitroimidazole]			1.90 ± 0.48	1.93 ± 0.39	1.01 ± 0.32	53.3 ± 8.3	34.2 ± 7.5	0.79 ± 0.12	70.3 ± 5.5	55.3 ± 8.3	0.88 ± 0.42	0.31 ± 0.15	
O=[N+]([O-])c1nccn1C1CC(O)C(CF)O1 (stereo not drawn) [β-FAZDR]	269 ± 4	124 ± 33											IC50 (hENT2 (SLC29A2)): > 3000 µM
O=[N+]([O-])c1nccn1[C@H]1C[C@H](O)[C@@H](C[18F])O1 [β-[^18F]FAZDR, [^18F]fluoro-azomycin-β-deoxyriboside]			0.40 ± 0.07	2.52 ± 0.94	0.17 ± 0.03	58.4 ± 8.2	56.6 ± 6.8	0.95 ± 0.02	75.3 ± 6.4	71.5 ± 7.0	0.12 ± 0.05	0.04 ± 0.01	tumor uptake (CT26 colon carcinoma; 2 h p.i.): 0.18 ± 0.06 %ID/cc; tumor-to-muscle ratio (TMR) (CT26 colon carcinoma; 2 h p.i.): 2.65 ± 0.87; muscle uptake (CT26 colon carcinoma; 2 h p.i.): 0.07 ± 0.01 %ID/cc; tumor-to-muscle ratio (TMR) (CT26 colon carcinoma; 3 h p.i.): 2.91 ± 1.01
